# “Also recorded” adds a separate entry of the source.
# Tests used:
# [1] = system: MDA-MB-231 cells; test: Synergy with TNF to induce cell death in MDA-MB-231 cells; assay type: cell-based; conditions: compound 5 μM, various concentrations of TNF, Figure S2
# [2] = system: human foreskin fibroblasts (HFF); assay type: cell-based; conditions: compound 5 μM alone or in the presence of TRAIL (100 ng/mL), Figure 5
# [3] = system: PPC-1 prostate cancer cells; conditions: for LD50 values for TRAIL in the presence of the compound: compound 5 μM for 4 h, then TRAIL 20 h; for LD50 values for TRAIL in the presence of the compound / synergy with TRAIL to reduce the number of viable cells: PPC-1 cells; for synergy with TRAIL to reduce the number of viable cells: compound 5 μM, Figure 4
# [4] = Cellular assay; assay type: cell-based; conditions: Figure S1
Structure (SMILES),synergy with TNF to induce cell death [1],toxicity in normal cells [2],LD50 values for TRAIL in the presence of the compound [3] [nM],synergy with TRAIL to reduce the number of viable cells [3],activity in a cellular assay [4],"toxicity as a single agent ([3]; single agent, Figures 4, 5 and S1)"
CN[C@@H](C)C(=O)N[C@H](C(=O)N1CCC[C@H]1C(=O)Nc1cccc2ccccc12)C(C)C [Compound 2b],acts synergistically,No toxicity was observed,0.073 to 0.089,act synergistically with TRAIL,,
CN[C@@H](C)C(=O)N[C@H](C(=O)N1CCC[C@H]1C(=O)N[C@@H]1CCCc2ccccc21)C(C)C [Compound 2c],,,0.073 to 0.089,act synergistically with TRAIL,,
CC(C)[C@H](NC(=O)[C@H](C)N)C(=O)N[C@@H](C)C(=O)Nc1cccc2ccccc12 [Compound 8t],,,,,did not show any activity,
CN[C@@H](C)C(=O)N[C@H](C(=O)N[C@@H](C)C(=O)Nc1cccc2ccccc12)C(C)C [Compound 8q],,No toxicity was observed,0.073 to 0.089,sensitized TRAIL-resistant prostate cancer cells to apoptotic cell death; also recorded: act synergistically with TRAIL,,no toxicity
CN[C@@H](C)C(=O)N[C@H](C(=O)N1CCC[C@H]1C(=O)NNc1ccccc1)C(C)C [Compound 2a],,,,act synergistically with TRAIL,,

# From paper PMC3772719 (Bioorganic & medicinal chemistry letters, 2013)
